Columns and labels:
[1] = test system: PglaDRR; test: LC-MS product formation, substrate-inhibition fit; format: biochemical, Papaver glaucum; details: reduction; 500 μM NADPH; Bis-tris, optimized pH and temperature (Table S12)
[2] = test system: PburDRR; test: LC-MS product formation, substrate-inhibition fit; format: biochemical, Papaver burseri; details: reduction; 500 μM NADPH; Bis-tris, optimized pH and temperature (Table S12)
[3] = test system: PlasDRR(REPI); test: LC-MS product formation, substrate-inhibition fit; format: biochemical, Papaver lasiothrix; details: reduction; 500 μM NADPH; Bis-tris, optimized pH and temperature (Table S12)
[4] = test system: PtriCOR3; test: LC-MS product formation, Michaelis-Menten fit; format: biochemical, Papaver triniifolium; details: reduction; 1 mM NADPH; Bis-tris, optimized pH and temperature (Table S12)
[5] = test system: PapoCOR1; test: LC-MS product formation, Michaelis-Menten fit; format: biochemical, Papaver apokrinomenon; details: reduction; 1 mM NADPH; Bis-tris, optimized pH and temperature (Table S12)
[6] = test system: PglaCOR; test: LC-MS product formation, Michaelis-Menten fit; format: biochemical, Papaver glaucum; details: reduction; 1 mM NADPH; Bis-tris, optimized pH and temperature (Table S12)
[7] = target: T1, PsomCOR (Papaver somniferum, UniProt Q9SQ68); test: LC-MS product formation, Michaelis-Menten fit; details: reduction; 1 mM NADPH; Bis-tris, optimized pH and temperature (Table S12)
T1 sequence (Q9SQ68 1-321): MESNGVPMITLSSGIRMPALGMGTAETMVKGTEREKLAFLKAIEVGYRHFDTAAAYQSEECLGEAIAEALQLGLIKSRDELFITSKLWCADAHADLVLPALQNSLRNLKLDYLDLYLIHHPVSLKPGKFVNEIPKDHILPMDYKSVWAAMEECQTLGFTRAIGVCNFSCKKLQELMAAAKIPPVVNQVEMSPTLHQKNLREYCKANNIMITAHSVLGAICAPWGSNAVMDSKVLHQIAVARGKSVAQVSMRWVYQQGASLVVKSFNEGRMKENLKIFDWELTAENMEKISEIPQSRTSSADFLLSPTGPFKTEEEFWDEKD

[8] = substrate: COc1ccc(CC2=[N+](C)CCc3cc(OC)c(O)cc32)cc1O; test: LC-MS product formation, substrate-inhibition fit; format: biochemical, Papaver somniferum; details: reduction; 500 μM NADPH; Bis-tris, optimized pH and temperature (Table S12)

Molecule: COc1ccc(CC2=[N+](C)CCc3cc(OC)c(O)cc32)cc1O [1,2-dehydroreticuline]
- Km [1]: 16.4 ± 2.3 µM
- Km [2]: 5.5 ± 1 µM
- Km [3]: 12.3 ± 2.2 µM

Molecule: COc1ccc2c3c1O[C@H]1C(=O)C=C[C@H]4[C@@H](C2)N(C)CC[C@]314 [codeinone]
- Km [4]: 10 ± 0.9 µM
- Km [5]: 117 ± 17.8 µM
- Km [6]: 78.8 ± 5.6 µM
- Km [7]: 17.4 ± 1.6 µM

B1: PsomDRR(REPI) (Papaver somniferum) (protein)
chain: MESSGVPVITLGSGKVMPVLGMGTFEKVGKGSERERLAILKAIEVGYRYFDTAAAYETEEVLGEAIAEALQLGLVKSRDELFISSMLWCTDAHADRVLLALQNSLRNLKLEYVDLYMLPFPASLKPGKITMDIPEEDICRMDYRSVWAAMEECQNLGFTKSIGVSNFSCKKLQELMATANIPPAVNQVEMSPAFQQKKLREYCNANNILVSAISVLGSNGTPWGSNAVLGSEVLKKIAMAKGKSVAQVSMRWVYEQGASLVVKSFSEERLRENLNIFDWELTKEDHEKIGEIPQCRILSAYFLVSPNGPFKSQEELWDDEA
- Km [8]: 7.3 ± 2.2 µM
- kcat [8]: 5.36 ± 1.71 s⁻¹
- kcat/Km [8]: 735000 M⁻¹ s⁻¹
